The nature of data set [1]: Lipophilicity, log D at pH 7.4. Format: physicochemical. The settings on record: buffer.
Data set [2] addresses 11-beta-hydroxysteroid dehydrogenase 1 (Mus musculus, UniProt P50172). Nature of the data set: Inhibition of mouse 11beta-HSD1 by HTRF assay. (Time-resolved FRET reads energy transfer from a long-lived donor to a nearby acceptor.)
A short description of data set [3]: Oral bioavailability in Han Wistar rat at 7.4 to 14.7 umol/kg. The settings on record: Han Wistar, in vivo. The format is ADME, organism-based.
Data set [4] has as its target 11-beta-hydroxysteroid dehydrogenase 1 (Homo sapiens, UniProt P28845). Nature of the data set: Inhibition of human 11beta-HSD1 by HTRF assay.

SMILES strings stand for the structures.

Usually logD stands for the decadic logarithm of the distribution of all forms, ionised or not, between an organic phase and buffer at a given pH. The low end stands for lower lipophilicity, the high end for higher lipophilicity. A word on the IC50: it is the concentration that gives 50% inhibition. Low values mean inhibition by little substance, high ones a need for much substance. A word on the bioavailability: it is the share of a dose that reaches the circulation, judged against a reference dose that is usually intravenous. A low value points to poor availability.

Chain of 11-beta-hydroxysteroid dehydrogenase 1 (Mus musculus, UniProt P50172) (P50172 whole entry): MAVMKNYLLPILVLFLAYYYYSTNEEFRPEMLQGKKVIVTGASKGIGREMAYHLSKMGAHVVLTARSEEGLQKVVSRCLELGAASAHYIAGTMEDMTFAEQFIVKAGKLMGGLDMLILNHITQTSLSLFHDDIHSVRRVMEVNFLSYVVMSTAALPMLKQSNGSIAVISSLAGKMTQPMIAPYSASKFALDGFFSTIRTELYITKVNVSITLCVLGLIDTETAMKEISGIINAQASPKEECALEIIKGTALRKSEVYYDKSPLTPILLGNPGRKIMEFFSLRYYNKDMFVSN
Chain of 11-beta-hydroxysteroid dehydrogenase 1 (Homo sapiens, UniProt P28845) (P28845 whole entry): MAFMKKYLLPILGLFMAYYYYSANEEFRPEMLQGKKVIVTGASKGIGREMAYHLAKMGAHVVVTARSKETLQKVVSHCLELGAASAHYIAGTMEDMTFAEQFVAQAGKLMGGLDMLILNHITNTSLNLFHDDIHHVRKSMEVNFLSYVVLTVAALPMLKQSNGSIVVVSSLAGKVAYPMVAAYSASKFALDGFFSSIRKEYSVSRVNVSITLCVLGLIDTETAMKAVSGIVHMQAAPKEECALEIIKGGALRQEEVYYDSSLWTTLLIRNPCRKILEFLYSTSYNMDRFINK

On to `O=C(N[C@H]1C2CC3CC1C[C@](O)(C3)C2)c1cnc(NC2CCS(=O)(=O)CC2)nc1C1CCC1`, for which the pH-dependent lipophilicity (logD) in data set [1] stood at 1.1.

On to `O=C(N[C@H]1C2CC3CC1C[C@](O)(C3)C2)c1cnc(NCCO)nc1C1CCCC1`, for which, in data set [1], the logD worked out at 1.8. For the same compound, in data set [2], the IC50 was 179 nM.

Consider `O=C(N[C@H]1C2CC3CC1C[C@](O)(C3)C2)c1cnc(N[C@@H]2CCOC2)nc1C1CCC1`, for which, in data set [1], the pH-dependent lipophilicity (logD) is 2. In data set [3], this compound showed a bioavailability of 99%. This compound also showed a half-maximal inhibitory concentration (IC50) in data set [2] of 37 nM.

In data set [1], `O=C(N[C@H]1C2CC3CC1C[C@](O)(C3)C2)c1cnc(NC2CCS(=O)(=O)CC2)nc1OC1CCC1` had a pH-dependent lipophilicity (logD) of 2.1. Further, the IC50 in data set [2] was 31 nM.

In turn, `CC(=O)N1CCC(Nc2ncc(C(=O)N[C@H]3C4CC5CC3C[C@](O)(C5)C4)c(C3CCCC3)n2)CC1` gave a log distribution coefficient (logD) in data set [1] of 1.9. This compound also gave a bioavailability in data set [3] of 46%. Further, it took 84 nM to reach half-maximal inhibition in data set [2] (IC50).

`O=C(N[C@H]1C2CC3CC1C[C@](O)(C3)C2)c1cnc(N[C@H]2CCOC2)nc1C1CCC1` had a logD in data set [1] of 1.8. In data set [3], the bioavailability came out at 82%. In addition, the concentration for half-maximal inhibition (IC50) in data set [2] was determined as 42 nM.

In data set [1], `C[C@@H](O)CNc1ncc(C(=O)N[C@H]2C3CC4CC2C[C@](O)(C4)C3)c(C2CCCC2)n1` gave a pH-dependent lipophilicity (logD) of 2. In addition, the bioavailability in data set [3] came out at 68%. Further, half-maximal inhibition in data set [2] (IC50) was put at 67 nM.

As to `CC(C)(O)CNc1ncc(C(=O)N[C@H]2C3CC4CC2C[C@](O)(C4)C3)c(C2CC2)n1`, the logD in data set [1] came out at 1.5. In addition, the IC50 in data set [2] was 31 nM.

Consider `O=C(N[C@H]1C2CC3CC1C[C@](O)(C3)C2)c1cnc(NC2CCOCC2)nc1C1CC1`, for which, in data set [1], the pH-dependent lipophilicity (logD) is 1.8. In addition, in data set [3], the bioavailability is 53%. Besides, half-maximal inhibition in data set [2] (IC50) was put at 22 nM.

As to `O=C(N[C@H]1C2CC3CC1C[C@](O)(C3)C2)c1cnc(NC2COC2)nc1C1CCCC1`, the logD in data set [1] is 2.1. This compound also returned a half-maximal inhibitory concentration (IC50) in data set [2] of 66 nM.

In the case of `CC(C)Oc1nc(NC2COC2)ncc1C(=O)N[C@H]1C2CC3CC1C[C@](O)(C3)C2`, the logD in data set [1] stood at 2.2. Moreover, the bioavailability in data set [3] stood at 57%. The compound also yielded an IC50 in data set [2] of 53 nM.

The compound `O=C(N[C@H]1C2CC3CC1C[C@](O)(C3)C2)c1cnc(N[C@H]2CCOC2)nc1C1CC1` registered a logD in data set [1] of 1.7. Moreover, the bioavailability in data set [3] stood at 73%.

Turning to `CC(C)(O)CNc1ncc(C(=O)N[C@H]2C3CC4CC2C[C@](O)(C4)C3)c(C2CCCC2)n1`, the logD in data set [1] was determined as 2.3. The bioavailability in data set [3] stood at 33%. Also, the IC50 in data set [2] came out at 48 nM.

Compound `CC(C)(CO)Nc1ncc(C(=O)N[C@H]2C3CC4CC2C[C@](O)(C4)C3)c(C2CCCC2)n1` gave a logD in data set [1] of 2.5. Besides, half-maximal inhibition in data set [2] (IC50) was put at 32 nM.

Regarding `O=C(N[C@H]1C2CC3CC1C[C@](O)(C3)C2)c1cnc(NC2CCS(=O)(=O)CC2)nc1C1CCCC1`, the logD in data set [1] was found to be 1.6. This compound registered an IC50 in data set [2] of 64 nM.

In the case of `CC(C)(CO)Nc1ncc(C(=O)N[C@H]2C3CC4CC2C[C@](O)(C4)C3)c(C2CC2)n1`, the pH-dependent lipophilicity (logD) in data set [1] was determined as 1.8. Half-maximal inhibition in data set [2] (IC50) required 20 nM.

With `CC(C)Oc1nc(N[C@@H]2CCOC2)ncc1C(=O)N[C@H]1C2CC3CC1C[C@](O)(C3)C2`, the logD in data set [1] amounted to 2.7. Also, the bioavailability in data set [3] is 62%.

Regarding `O=C(N[C@H]1C2CC3CC1C[C@](O)(C3)C2)c1cnc(NC2COC2)nc1OC1CCC1`, in data set [1], the pH-dependent lipophilicity (logD) came to 2.6. In data set [3], this compound gave a bioavailability of 19%. The compound also displayed a half-maximal inhibitory concentration (IC50) in data set [2] of 33 nM.

In data set [1], `O=C(N[C@H]1C2CC3CC1C[C@](O)(C3)C2)c1cnc(NC2CCOCC2)nc1OC1CCC1` came in with a logD of 3.2. The bioavailability in data set [3] amounted to 83%. The compound further showed an IC50 in data set [2] of 19 nM.

For the compound `O=C(N[C@H]1C2CC3CC1C[C@](O)(C3)C2)c1cnc(N[C@H]2CCNC2=O)nc1C1CCCC1`, the log distribution coefficient (logD) in data set [1] stood at 0.9. For the same compound, in data set [2], 55 nM corresponded to half-maximal inhibition (IC50).

`O=C1CC[C@@H](Nc2ncc(C(=O)N[C@H]3C4CC5CC3C[C@](O)(C5)C4)c(C3CCCC3)n2)CN1` gave a pH-dependent lipophilicity (logD) in data set [1] of 1.6. The compound also gave an IC50 in data set [2] of 133 nM.

In the case of `O=C1C[C@H](CNc2ncc(C(=O)N[C@H]3C4CC5CC3C[C@](O)(C5)C4)c(C3CCCC3)n2)CN1`, in data set [1], the log distribution coefficient (logD) is 1.4. The bioavailability in data set [3] was 9%. Further, 85 nM corresponded to half-maximal inhibition in data set [2] (IC50).

Turning to `CN(C)C(=O)CNc1ncc(C(=O)N[C@H]2C3CC4CC2C[C@](O)(C4)C3)c(C2CCCC2)n1`, the logD in data set [1] stood at 1.4. This compound registered an IC50 in data set [2] of 163 nM.

Consider `O=C(N[C@H]1C2CC3CC1C[C@](O)(C3)C2)c1cnc(N[C@H]2CCOC2)nc1OC1CCC1`, for which the pH-dependent lipophilicity (logD) in data set [1] came out at 2.8. In data set [3], the bioavailability amounted to 99%. For the same compound, half-maximal inhibition in data set [2] (IC50) was put at 22 nM.

`O=C(N[C@H]1C2CC3CC1C[C@](O)(C3)C2)c1cnc(N[C@@H]2CCOC2)nc1C1CC1` returned a pH-dependent lipophilicity (logD) in data set [1] of 1.6.

Regarding `CC(C)(O)CNc1ncc(C(=O)N[C@H]2C3CC4CC2C[C@](O)(C4)C3)c(C2CCC2)n1`, the log distribution coefficient (logD) in data set [1] was determined as 1.8. For the same compound, the bioavailability in data set [3] turned out to be 86%.

On to `O=C(N[C@H]1C2CC3CC1C[C@](O)(C3)C2)c1cnc(N[C@H]2CCC[C@H]2O)nc1C1CCCC1`, for which the logD in data set [1] stood at 2.7. Besides, the bioavailability in data set [3] stood at 17%. This compound returned a half-inhibitory concentration (IC50) in data set [2] of 36 nM.

In the case of `C[C@H](O)CNc1ncc(C(=O)N[C@H]2C3CC4CC2C[C@](O)(C4)C3)c(C2CCCC2)n1`, the logD in data set [1] stood at 2. The same compound came in with an IC50 in data set [2] of 42 nM.

Take `CC(C)Oc1nc(N[C@H]2CCOC2)ncc1C(=O)N[C@H]1C2CC3CC1C[C@](O)(C3)C2`: the logD in data set [1] amounted to 2.5. Besides, the bioavailability in data set [3] was determined as 83%.

In data set [1], `O=C(N[C@H]1C2CC3CC1C[C@](O)(C3)C2)c1cnc(NC[C@H]2CCCO2)nc1C1CCCC1` registered a logD of 2.8. The compound also gave a 50% inhibitory concentration (IC50) in data set [2] of 42 nM.

`O=C(N[C@H]1C2CC3CC1C[C@](O)(C3)C2)c1cnc(NC2COC2)nc1C1CC1` came in with a logD in data set [1] of 1.1. Also, the midpoint of inhibition in data set [2], the IC50, lay at 38 nM.

Take `O=C(N[C@H]1C2CC3CC1C[C@](O)(C3)C2)c1cnc(NC2CCOCC2)nc1C1CCCC1`: the logD in data set [1] is 2.6. For the same compound, in data set [2], the midpoint of inhibition, the IC50, lay at 38 nM.

In turn, `O=C(N[C@H]1C2CC3CC1C[C@](O)(C3)C2)c1cnc(N[C@@H]2CCOC2)nc1C1CCCC1` yielded a logD in data set [1] of 2.4. For the same compound, the bioavailability in data set [3] amounted to 63%. The values for the IC50 in data set [2] and in data set [4] were 25 nM and 21 nM, respectively.

`O=C(N[C@H]1C2CC3CC1C[C@](O)(C3)C2)c1cnc(N[C@@H]2CCOC2)nc1OC1CCC1`: the logD in data set [1] was determined as 2.9. The compound further returned a bioavailability in data set [3] of 99%. In addition, the IC50 in data set [2] was 16 nM.

`O=C(N[C@H]1C2CC3CC1C[C@](O)(C3)C2)c1cnc(NC[C@@H]2CCCO2)nc1C1CCCC1` (single isomer, unassigned) returned a pH-dependent lipophilicity (logD) in data set [1] of 2.7. This compound registered a 50% inhibitory concentration (IC50) in data set [2] of 25 nM.

Take `O=C(N[C@H]1C2CC3CC1C[C@](O)(C3)C2)c1cnc(NCCO)nc1C1CCC1`: the logD in data set [1] amounted to 1.3.

Turning to `O=C(N[C@H]1C2CC3CC1C[C@](O)(C3)C2)c1cnc(NCCO)nc1OC1CCC1`, the log distribution coefficient (logD) in data set [1] worked out at 2.5. This compound yielded a bioavailability in data set [3] of 51%. This compound also came in with a concentration for half-maximal inhibition (IC50) in data set [2] of 31 nM.

In data set [1], `COCCNc1ncc(C(=O)N[C@H]2C3CC4CC2C[C@](O)(C4)C3)c(C2CCCC2)n1` gave a logD of 2.4. For the same compound, in data set [2], the IC50 amounted to 73 nM.

Regarding `CC(=O)N1CC[C@@H](Nc2ncc(C(=O)N[C@H]3C4CC5CC3C[C@](O)(C5)C4)c(C3CCCC3)n2)C1`, the logD in data set [1] is 1.8. In data set [3], this compound had a bioavailability of 18%. For the same compound, the IC50 in data set [2] came out at 50 nM.

Values taken from ChEMBL document CHEMBL2177079, “Free-Wilson and structural approaches to co-optimizing human and rodent isoform potency for 11β-hydroxysteroid dehydrogenase type 1 (11β-HSD1) inhibitors” (J Med Chem, 2012).
